{"source": "patent US9956187B2", "about": "(priority 2014, dated 2018)", "key": {"5-HT1A": {"molecular_target": "T1, 5-HT1A (Homo sapiens, UniProt P08908)", "T1 construct": "expressed in transfected cells", "experiment": "Primary radioligand binding screen", "experimental": "(§1) Evidence for interaction was based on the inhibition of the reference ligand-binding signal. […] Briefly, 50 μL aliquots of radioactive ligand (5 nM) were added to wells of a 96-well plate, which contained 25 μL of the reference or test ligands. We employed transfected cell lines expressing mainly human (unless otherwise specified) recombinant receptors, monoamine transporters, or ion channels for crude membrane preparation. Detailed information about our membrane preparation is well known in the art and can be obtained from publicly available protocol online. Crude membrane fractions containing the receptors were resuspended in standard binding buffer and 50 μL aliquots added to each well. The reactions were incubated at room temperature for 1.5 hours to allow for radioligand binding equilibration. Bound radioactivity was harvested by rapid filtration through a 0.3% polyethyleneimine-treated, 96-well filter mats using a 96-well Filtermate harvester. The dried filters were treated with melted scintillant and a Microbeta scintillation counter was utilized to measure the radioactivity retained on the filter."}, "5-HT1B": {"molecular_target": "T2, 5-HT1B (Homo sapiens, UniProt P28222)", "T2 construct": "expressed in transfected cells", "experiment": "Primary radioligand binding screen", "experimental": "as §1"}, "5-HT1D": {"molecular_target": "T3, 5-HT1D (Homo sapiens, UniProt P28221)", "T3 construct": "expressed in transfected cells", "experiment": "Primary radioligand binding screen", "experimental": "as §1"}, "5-HT1E": {"molecular_target": "T4, 5-HT1E (Homo sapiens, UniProt P28566)", "T4 construct": "expressed in transfected cells", "experiment": "Primary radioligand binding screen", "experimental": "as §1"}, "5-HT2A": {"molecular_target": "T5, 5-HT2A (Homo sapiens, UniProt P28223)", "T5 construct": "expressed in transfected cells", "T5 sequence (P28223 whole entry)": "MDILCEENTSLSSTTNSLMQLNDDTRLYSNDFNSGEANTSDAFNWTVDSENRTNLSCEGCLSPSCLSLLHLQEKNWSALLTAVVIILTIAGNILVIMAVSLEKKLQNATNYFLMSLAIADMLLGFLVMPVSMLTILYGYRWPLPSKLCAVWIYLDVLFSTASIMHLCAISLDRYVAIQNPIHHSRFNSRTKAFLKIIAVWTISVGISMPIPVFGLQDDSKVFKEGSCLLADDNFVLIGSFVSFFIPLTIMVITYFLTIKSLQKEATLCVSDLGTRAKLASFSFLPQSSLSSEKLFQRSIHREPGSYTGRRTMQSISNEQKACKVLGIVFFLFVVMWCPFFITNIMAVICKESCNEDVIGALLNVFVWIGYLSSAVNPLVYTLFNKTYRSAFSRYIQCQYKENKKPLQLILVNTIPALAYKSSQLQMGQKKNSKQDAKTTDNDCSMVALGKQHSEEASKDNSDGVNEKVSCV", "experiment": "Primary radioligand binding screen", "experimental": "as §1"}, "5-HT2B": {"molecular_target": "T6, 5-HT2B (Homo sapiens, UniProt P41595)", "T6 construct": "expressed in transfected cells", "experiment": "Primary radioligand binding screen", "experimental": "as §1"}, "5-HT2C": {"molecular_target": "T7, 5-HT2C (Homo sapiens, UniProt P28335)", "T7 construct": "expressed in transfected cells", "T7 sequence (P28335 33-458)": "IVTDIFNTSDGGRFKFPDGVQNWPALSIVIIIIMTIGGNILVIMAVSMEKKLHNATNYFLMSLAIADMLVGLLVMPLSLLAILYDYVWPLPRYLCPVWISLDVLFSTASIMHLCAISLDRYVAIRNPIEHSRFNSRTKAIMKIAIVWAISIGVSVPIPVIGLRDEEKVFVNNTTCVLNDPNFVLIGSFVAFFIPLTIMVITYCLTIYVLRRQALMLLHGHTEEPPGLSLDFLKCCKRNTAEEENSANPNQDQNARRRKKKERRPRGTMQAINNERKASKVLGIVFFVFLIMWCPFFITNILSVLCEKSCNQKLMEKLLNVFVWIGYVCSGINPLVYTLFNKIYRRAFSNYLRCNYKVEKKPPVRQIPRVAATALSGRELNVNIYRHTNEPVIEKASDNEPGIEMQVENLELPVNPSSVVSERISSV", "experiment": "Primary radioligand binding screen", "experimental": "as §1"}, "5-HT3": {"molecular_target": "T8, 5-HT3 (Homo sapiens, UniProt P46098)", "T8 construct": "expressed in transfected cells", "experiment": "Primary radioligand binding screen", "experimental": "as §1"}, "5-HT6": {"molecular_target": "T9, 5-HT6 (Homo sapiens, UniProt P50406)", "T9 construct": "expressed in transfected cells", "experiment": "Primary radioligand binding screen", "experimental": "as §1"}, "5-hT5A": {"molecular_target": "T10, 5-hT5A (Homo sapiens, UniProt P47898)", "T10 construct": "expressed in transfected cells", "T10 sequence (P47898 whole entry)": "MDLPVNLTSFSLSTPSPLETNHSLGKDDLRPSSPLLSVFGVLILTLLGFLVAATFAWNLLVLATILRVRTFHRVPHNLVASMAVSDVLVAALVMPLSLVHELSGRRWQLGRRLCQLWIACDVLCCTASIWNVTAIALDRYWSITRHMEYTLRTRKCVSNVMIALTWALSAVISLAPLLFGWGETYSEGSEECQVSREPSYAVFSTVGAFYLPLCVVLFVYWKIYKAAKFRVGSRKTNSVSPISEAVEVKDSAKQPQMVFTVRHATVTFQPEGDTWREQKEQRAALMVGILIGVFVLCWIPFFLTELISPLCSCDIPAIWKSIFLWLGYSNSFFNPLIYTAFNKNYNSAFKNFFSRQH", "experiment": "Primary radioligand binding screen", "experimental": "as §1"}, "Alpha1A": {"molecular_target": "T11, Alpha1A (Homo sapiens, UniProt P35348)", "T11 construct": "expressed in transfected cells", "experiment": "Primary radioligand binding screen", "experimental": "as §1"}, "Alpha1B": {"molecular_target": "T12, Alpha1B (Homo sapiens, UniProt P35368)", "T12 construct": "expressed in transfected cells", "experiment": "Primary radioligand binding screen", "experimental": "as §1"}, "Alpha2B": {"molecular_target": "T13, Alpha2B (Homo sapiens, UniProt P18089)", "T13 construct": "expressed in transfected cells", "experiment": "Primary radioligand binding screen", "experimental": "as §1"}, "Alpha2C": {"molecular_target": "T14, Alpha2C (Homo sapiens, UniProt P18825)", "T14 construct": "expressed in transfected cells", "experiment": "Primary radioligand binding screen", "experimental": "as §1"}, "Beta1": {"molecular_target": "T15, Beta1 (Homo sapiens, UniProt P08588)", "T15 construct": "expressed in transfected cells", "T15 sequence (P08588 whole entry)": "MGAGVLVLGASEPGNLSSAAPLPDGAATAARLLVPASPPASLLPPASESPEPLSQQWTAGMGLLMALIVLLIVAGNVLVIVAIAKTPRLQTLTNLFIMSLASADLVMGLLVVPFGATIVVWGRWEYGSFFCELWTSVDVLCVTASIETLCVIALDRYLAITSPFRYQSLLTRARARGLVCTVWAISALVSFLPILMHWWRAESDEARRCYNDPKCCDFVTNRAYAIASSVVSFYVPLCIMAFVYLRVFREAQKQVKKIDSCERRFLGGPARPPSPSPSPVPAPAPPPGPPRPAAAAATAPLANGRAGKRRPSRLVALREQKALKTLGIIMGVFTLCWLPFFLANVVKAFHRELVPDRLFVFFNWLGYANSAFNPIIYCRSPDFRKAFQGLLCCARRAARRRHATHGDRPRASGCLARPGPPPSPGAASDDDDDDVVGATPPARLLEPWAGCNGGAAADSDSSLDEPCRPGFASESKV", "experiment": "Primary radioligand binding screen", "experimental": "as §1"}, "Beta2": {"molecular_target": "T16, Beta2 (Homo sapiens, UniProt P07550)", "T16 construct": "expressed in transfected cells", "experiment": "Primary radioligand binding screen", "experimental": "as §1"}, "Beta3": {"molecular_target": "T17, Beta3 (Homo sapiens, UniProt P13945)", "T17 construct": "expressed in transfected cells", "T17 sequence (P13945 whole entry)": "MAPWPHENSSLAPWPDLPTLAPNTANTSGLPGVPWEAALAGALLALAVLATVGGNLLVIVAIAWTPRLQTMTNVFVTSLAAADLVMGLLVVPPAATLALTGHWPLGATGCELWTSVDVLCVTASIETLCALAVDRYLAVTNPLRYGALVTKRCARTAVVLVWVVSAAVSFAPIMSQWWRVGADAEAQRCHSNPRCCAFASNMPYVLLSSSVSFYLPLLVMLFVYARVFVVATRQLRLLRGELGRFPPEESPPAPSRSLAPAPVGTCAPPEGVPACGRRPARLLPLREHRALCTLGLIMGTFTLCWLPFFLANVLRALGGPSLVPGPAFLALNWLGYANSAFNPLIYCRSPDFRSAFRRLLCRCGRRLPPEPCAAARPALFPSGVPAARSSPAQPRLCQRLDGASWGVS", "experiment": "Primary radioligand binding screen", "experimental": "as §1"}, "D1": {"molecular_target": "T18, D1 (Homo sapiens, UniProt P21728)", "T18 construct": "expressed in transfected cells", "experiment": "Primary radioligand binding screen", "experimental": "as §1"}, "D2": {"molecular_target": "T19, D2 (Homo sapiens, UniProt P14416)", "T19 construct": "expressed in transfected cells", "T19 sequence (P14416 whole entry)": "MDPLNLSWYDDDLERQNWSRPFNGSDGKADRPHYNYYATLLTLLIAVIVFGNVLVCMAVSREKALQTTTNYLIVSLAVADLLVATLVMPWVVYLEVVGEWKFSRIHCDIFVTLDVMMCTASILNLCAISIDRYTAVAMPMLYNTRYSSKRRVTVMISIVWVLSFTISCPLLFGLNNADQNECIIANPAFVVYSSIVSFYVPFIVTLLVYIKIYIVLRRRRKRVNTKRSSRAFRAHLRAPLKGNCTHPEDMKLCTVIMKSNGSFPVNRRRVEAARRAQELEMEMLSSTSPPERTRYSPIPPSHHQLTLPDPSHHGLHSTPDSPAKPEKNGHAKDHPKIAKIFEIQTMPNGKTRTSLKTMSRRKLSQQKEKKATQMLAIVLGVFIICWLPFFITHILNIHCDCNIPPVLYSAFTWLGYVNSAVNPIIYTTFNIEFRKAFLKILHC", "experiment": "Primary radioligand binding screen", "experimental": "as §1"}, "D3": {"molecular_target": "T20, D3 (Homo sapiens, UniProt P35462)", "T20 construct": "expressed in transfected cells", "experiment": "Primary radioligand binding screen", "experimental": "as §1"}, "D4": {"molecular_target": "T21, D4 (Homo sapiens, UniProt P21917)", "T21 construct": "expressed in transfected cells", "experiment": "Primary radioligand binding screen", "experimental": "as §1"}, "D5": {"molecular_target": "T22, D5 (Homo sapiens, UniProt P21918)", "T22 construct": "expressed in transfected cells", "experiment": "Primary radioligand binding screen", "experimental": "as §1"}, "DAT": {"molecular_target": "T23, DAT (Homo sapiens, UniProt Q01959)", "T23 construct": "expressed in transfected cells", "experiment": "Primary radioligand binding screen", "experimental": "as §1"}, "DOR": {"molecular_target": "T24, DOR (Homo sapiens, UniProt P41143)", "T24 construct": "expressed in transfected cells", "experiment": "Primary radioligand binding screen", "experimental": "as §1"}, "H3": {"molecular_target": "T25, H3 (Homo sapiens, UniProt Q9Y5N1)", "T25 construct": "expressed in transfected cells", "T25 sequence (Q9Y5N1 whole entry)": "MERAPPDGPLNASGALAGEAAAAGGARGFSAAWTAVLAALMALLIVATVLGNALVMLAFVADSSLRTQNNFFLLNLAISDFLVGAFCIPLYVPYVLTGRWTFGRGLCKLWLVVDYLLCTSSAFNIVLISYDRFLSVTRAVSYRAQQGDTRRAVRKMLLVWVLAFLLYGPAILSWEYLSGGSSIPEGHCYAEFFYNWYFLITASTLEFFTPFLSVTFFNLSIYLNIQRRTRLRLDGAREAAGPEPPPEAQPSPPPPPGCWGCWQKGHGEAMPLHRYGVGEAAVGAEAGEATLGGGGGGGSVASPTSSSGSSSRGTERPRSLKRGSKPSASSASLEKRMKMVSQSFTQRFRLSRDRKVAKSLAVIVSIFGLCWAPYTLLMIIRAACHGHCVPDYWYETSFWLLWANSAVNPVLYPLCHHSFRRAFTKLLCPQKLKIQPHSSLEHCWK", "experiment": "Primary radioligand binding screen", "experimental": "as §1"}, "M1": {"molecular_target": "T26, M1 (Homo sapiens, UniProt P11229)", "T26 construct": "expressed in transfected cells", "experiment": "Primary radioligand binding screen", "experimental": "as §1"}, "M2": {"molecular_target": "T27, M2 (Homo sapiens, UniProt P08172)", "T27 construct": "expressed in transfected cells", "T27 sequence (P08172 whole entry)": "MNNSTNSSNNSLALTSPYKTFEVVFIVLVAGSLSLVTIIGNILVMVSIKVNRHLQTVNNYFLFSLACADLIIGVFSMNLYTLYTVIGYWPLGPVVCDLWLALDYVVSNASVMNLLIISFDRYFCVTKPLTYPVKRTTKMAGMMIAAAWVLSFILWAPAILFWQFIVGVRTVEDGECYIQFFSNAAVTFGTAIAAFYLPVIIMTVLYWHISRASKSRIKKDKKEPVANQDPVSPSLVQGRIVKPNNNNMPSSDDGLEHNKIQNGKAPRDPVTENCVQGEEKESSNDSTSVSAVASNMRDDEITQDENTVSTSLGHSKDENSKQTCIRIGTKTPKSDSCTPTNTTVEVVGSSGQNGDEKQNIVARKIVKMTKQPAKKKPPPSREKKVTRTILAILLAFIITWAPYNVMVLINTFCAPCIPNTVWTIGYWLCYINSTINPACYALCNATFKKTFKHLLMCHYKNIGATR", "experiment": "Primary radioligand binding screen", "experimental": "as §1"}, "M3": {"molecular_target": "T28, M3 (Homo sapiens, UniProt P20309)", "T28 construct": "expressed in transfected cells", "experiment": "Primary radioligand binding screen", "experimental": "as §1"}, "M4": {"molecular_target": "T29, M4 (Homo sapiens, UniProt P08173)", "T29 construct": "expressed in transfected cells", "experiment": "Primary radioligand binding screen", "experimental": "as §1"}, "M5": {"molecular_target": "T30, M5 (Homo sapiens, UniProt P08912)", "T30 construct": "expressed in transfected cells", "T30 sequence (P08912 whole entry)": "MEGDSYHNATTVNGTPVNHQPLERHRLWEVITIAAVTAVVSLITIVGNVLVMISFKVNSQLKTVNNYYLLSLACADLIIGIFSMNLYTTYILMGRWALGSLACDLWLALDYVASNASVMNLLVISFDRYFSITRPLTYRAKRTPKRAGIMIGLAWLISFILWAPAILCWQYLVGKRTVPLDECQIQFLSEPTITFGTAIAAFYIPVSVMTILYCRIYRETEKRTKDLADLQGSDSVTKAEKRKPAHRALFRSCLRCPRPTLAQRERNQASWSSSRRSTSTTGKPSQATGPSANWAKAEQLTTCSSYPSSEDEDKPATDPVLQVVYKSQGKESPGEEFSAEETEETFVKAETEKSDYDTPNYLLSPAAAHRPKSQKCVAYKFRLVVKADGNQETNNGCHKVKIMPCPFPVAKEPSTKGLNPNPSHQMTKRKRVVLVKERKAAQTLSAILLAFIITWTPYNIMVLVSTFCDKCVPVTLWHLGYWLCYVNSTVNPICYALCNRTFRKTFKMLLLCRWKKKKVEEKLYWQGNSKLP", "experiment": "Primary radioligand binding screen", "experimental": "as §1"}, "NET": {"molecular_target": "T31, NET (Homo sapiens, UniProt P23975)", "T31 construct": "expressed in transfected cells", "experiment": "Primary radioligand binding screen", "experimental": "as §1"}, "Sigma 2": {"molecular_target": "Sigma 2 (Rattus norvegicus, UniProt Q5U3Y7)", "experiment": "Primary radioligand binding screen", "experimental": "as §1"}, "GABAA": {"test_system": "GABAA", "experiment": "Primary radioligand binding screen", "parameters": "species or system human", "conditions": "dezocine 10 μM", "experimental": "as §1"}, "human cloned SERT": {"molecular_target": "T32, human cloned SERT (Homo sapiens, UniProt P31645)", "T32 construct": "expressed in transfected cells", "T32 sequence (P31645 whole entry)": "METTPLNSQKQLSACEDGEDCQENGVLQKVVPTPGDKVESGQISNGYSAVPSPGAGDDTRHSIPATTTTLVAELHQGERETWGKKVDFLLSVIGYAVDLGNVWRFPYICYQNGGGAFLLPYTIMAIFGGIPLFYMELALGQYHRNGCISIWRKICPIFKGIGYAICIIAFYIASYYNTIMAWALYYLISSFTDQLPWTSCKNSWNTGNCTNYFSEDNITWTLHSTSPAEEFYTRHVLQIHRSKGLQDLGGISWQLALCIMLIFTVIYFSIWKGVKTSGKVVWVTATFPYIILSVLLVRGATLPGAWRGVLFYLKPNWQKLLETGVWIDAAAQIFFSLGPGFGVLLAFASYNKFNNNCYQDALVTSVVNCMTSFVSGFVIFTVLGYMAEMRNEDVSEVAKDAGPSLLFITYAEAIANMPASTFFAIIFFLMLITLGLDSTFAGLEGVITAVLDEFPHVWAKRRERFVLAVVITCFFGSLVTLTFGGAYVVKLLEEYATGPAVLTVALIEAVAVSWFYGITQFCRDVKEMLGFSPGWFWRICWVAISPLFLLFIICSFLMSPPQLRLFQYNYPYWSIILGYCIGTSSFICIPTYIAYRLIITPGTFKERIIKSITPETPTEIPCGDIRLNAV", "experiment": "Serotonin reuptake assay in HEK 293 cells", "type": "cell-based", "conditions": "mean±SE", "experimental": "In brief, Human Embryonic Kidney 293 cells were plated in Poly-L-Lys (PLL) coated 384-well black clear bottom cell culture plates in DMEM+1% dFBS, at a density of 15,000 cells per well in a total volume of 40 μl. The cells were incubated for a minimum of 6 hours before use in the assays. The medium was removed and 20 μL of assay buffer (20 mM HEPES, 1×HBSS, pH 7.40) was added, followed by 5 μL of 5× drug solutions. The plate was incubated at 37° C. for 30 min. After the incubation, 25 μL of dye solution was added and fluorescence intensity was measured after […] at 37° C., using FlexStation II (bottom read mode, Excitation at 440 nm, Emission at 520 nm with 510 nm cut-off) from the Molecular Devices. […] The half maximal inhibitory concentration were determined and expressed as pIC50 (pIC50=−log (IC50))."}, "Sigma 1": {"molecular_target": "Sigma 1 (Homo sapiens, UniProt Q99720)", "sequence (Q99720 whole entry)": "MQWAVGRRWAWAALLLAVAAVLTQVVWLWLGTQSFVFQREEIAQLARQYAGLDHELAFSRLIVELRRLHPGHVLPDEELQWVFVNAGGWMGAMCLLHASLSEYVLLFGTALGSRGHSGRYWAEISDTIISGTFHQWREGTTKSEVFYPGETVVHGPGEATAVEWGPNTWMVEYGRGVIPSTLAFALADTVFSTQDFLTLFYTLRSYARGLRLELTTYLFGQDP", "experiment": "Primary radioligand binding screen", "parameters": "expressed in transfected cells", "experimental": "as §1"}}, "note": "Counter-ions that a name gives are not always drawn.", "data": [{"smiles": "C[C@@]12CCCCC[C@@H](Cc3ccc(O)cc31)[C@@H]2N", "note": "[Dezocine, (−)-13β-amino-5,6,7,8,9,10,11,12-octahydro-5α-methyl-5,11-methanobenxocyclodecen-31-ol, hydrobromide]", "values": [{"measurement": "inhibition at 10 µM", "setting": "5-HT1A", "value": 43.5, "unit": "%"}, {"measurement": "inhibition at 10 µM", "setting": "5-HT1B", "value": -14.1, "unit": "%"}, {"measurement": "inhibition at 10 µM", "setting": "5-HT1D", "value": -0.4, "unit": "%"}, {"measurement": "inhibition at 10 µM", "setting": "5-HT1E", "value": -2.4, "unit": "%"}, {"measurement": "inhibition at 10 µM", "setting": "5-HT2A", "value": -10, "unit": "%"}, {"measurement": "inhibition at 10 µM", "setting": "5-HT2B", "value": -11.9, "unit": "%"}, {"measurement": "inhibition at 10 µM", "setting": "5-HT2C", "value": 19.8, "unit": "%"}, {"measurement": "inhibition at 10 µM", "setting": "5-HT3", "value": 11.8, "unit": "%"}, {"measurement": "inhibition at 10 µM", "setting": "5-HT6", "value": 10.9, "unit": "%"}, {"measurement": "inhibition at 10 µM", "setting": "5-hT5A", "value": 3.4, "unit": "%"}, {"measurement": "inhibition at 10 µM", "setting": "Alpha1A", "value": 4.9, "unit": "%"}, {"measurement": "inhibition at 10 µM", "setting": "Alpha1B", "value": 14.7, "unit": "%"}, {"measurement": "inhibition at 10 µM", "setting": "Alpha2B", "value": 21.2, "unit": "%"}, {"measurement": "inhibition at 10 µM", "setting": "Alpha2C", "value": -7.9, "unit": "%"}, {"measurement": "inhibition at 10 µM", "setting": "Beta1", "value": 10, "unit": "%"}, {"measurement": "inhibition at 10 µM", "setting": "Beta2", "value": -4.5, "unit": "%"}, {"measurement": "inhibition at 10 µM", "setting": "Beta3", "value": -15, "unit": "%"}, {"measurement": "inhibition at 10 µM", "setting": "D1", "value": 11.5, "unit": "%"}, {"measurement": "inhibition at 10 µM", "setting": "D2", "value": -3.8, "unit": "%"}, {"measurement": "inhibition at 10 µM", "setting": "D3", "value": -9.4, "unit": "%"}, {"measurement": "inhibition at 10 µM", "setting": "D4", "value": -5.1, "unit": "%"}, {"measurement": "inhibition at 10 µM", "setting": "D5", "value": -6.3, "unit": "%"}, {"measurement": "inhibition at 10 µM", "setting": "DAT", "value": 15.8, "unit": "%"}, {"measurement": "inhibition at 10 µM", "setting": "DOR", "value": 58.5, "unit": "%"}, {"measurement": "inhibition at 10 µM", "setting": "H3", "value": -1.6, "unit": "%"}, {"measurement": "inhibition at 10 µM", "setting": "M1", "value": -6.8, "unit": "%"}, {"measurement": "inhibition at 10 µM", "setting": "M2", "value": 31.5, "unit": "%"}, {"measurement": "inhibition at 10 µM", "setting": "M3", "value": -3.4, "unit": "%"}, {"measurement": "inhibition at 10 µM", "setting": "M4", "value": 2.5, "unit": "%"}, {"measurement": "inhibition at 10 µM", "setting": "M5", "value": 19.4, "unit": "%"}, {"measurement": "inhibition at 10 µM", "setting": "NET", "value": 86.4, "unit": "%"}, {"measurement": "inhibition at 10 µM", "setting": "Sigma 2", "value": 6.3, "unit": "%"}, {"measurement": "% inhibition", "setting": "GABAA", "value": "−10.1", "unit": "%"}, {"measurement": "pIC50 of SERT (serotonin reuptake)", "setting": "human cloned SERT", "value": "5.86±0.17"}, {"measurement": "inhibition at 10 µM", "setting": "Sigma 1", "value": 21.7, "unit": "%"}]}]}
